Measured values as given in paper PMC10107299, “Neutralizing the Impact of the Virulence Factor LecA from Pseudomonas aeruginosa on Human Cells with New Glycomimetic Inhibitors” (Angewandte Chemie (International Ed. in English), 2023).

Key:
[1] = In vitro metabolic stability, human liver microsomes; assay type: in vitro ADME; conditions: N=3, read-out: CLint HLM
Experimental: We then determined the in vitro metabolic stability in plasma and liver microsomes as well as plasma protein binding for a selected subset of the synthesized LecA inhibitors, i.e. D1, D2, H1, H2 and L2 and compared them to the parent bisacylhydrazone 14 (Table 2). […] The metabolic stability of the compounds differed in presence of human liver microsomes (HLM). Introduction of a pyridine ring decreased stability (H1 CLint=28.6 μL min^−1/mg protein, H2 CLint=32.5 μL min^−1/mg protein) compared to the benzene analogues (D1 CLint=21.9 μL min^−1/mg protein, D2 CLint=21.0 μL min^−1/mg protein) and to the parent acylhydrazone 14 (CLint=19.6 μL min^−1/mg protein). […]
mixer (Eppendorf). Acetonitrile and caffeine were dispensed using a Mantis Formulatrix. Then samples were centrifuged for 20 min at 2.270 x g at 4 °C and the supernatants were transferred to 96-well Greiner V-bottom plates. Peak areas of each compound and of the internal standard were analyzed using the MultiQuant 3.0 software (AB Sciex). Peak areas of the respective compound were normalized to the internal standard peak area and to the respective peak areas at time point 0 min: (C/D)/(A/B) with A: peak area of the compound at time point 0 min, B: peak area of the internal standard at time point 0 min, C: peak area of the compound at the respective time point, D: peak area of the internal standard at the respective time point.
In vitro metabolic stability assay
Liver microsomes (mouse and human, Thermo Fisher) were thawed slowly on ice. 20 mg/mL of microsomes, 2 µL of a 100 µM solution of every compound and 183 µL of 100 mM phosphate buffer were incubated 5 min at 37 °C in a water bath. Reactions were initiated using 10 µL of 20 mM NADPH (CarlRoth). Samples were incubated in three replicates at 37 °C under gentle agitation at 150 rpm. At 0, 5, 15, 30, and 60 min, reactions were terminated by the addition of 180 µL acetonitrile using a Mantis Formulatrix dispenser. Samples were vortexed for 5 min using an Eppendorf MixMate vortex mixer and centrifuged at 2.270 x g for 20 min at 4 °C. The supernatants were transferred to 96-well Greiner V-bottom plates, sealed and analyzed according to the section HPLC-MS analysis. Peak areas of the respective time point of the compounds were normalized to the peak area at time point 0 min. Then half-life was calculated using linear regression (Microsoft Excel). Clint [µL/min/mg protein] was calculated using the following formula: […]

[2] = biological target: T1, LecA (Pseudomonas aeruginosa, UniProt Q05097); test: Competitive binding assay based on fluorescence polarization
T1 construct: made in house
T1 sequence (Q05097 whole entry): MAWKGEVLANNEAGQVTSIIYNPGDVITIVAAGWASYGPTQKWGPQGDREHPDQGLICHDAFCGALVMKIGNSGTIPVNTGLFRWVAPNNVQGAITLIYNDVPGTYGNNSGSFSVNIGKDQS
Experimental: All synthesized galactosides were then evaluated for LecA inhibition using a competitive binding assay based on fluorescence polarization (Figure S1).[24]
Expression and purification of LecA as well as competitive binding by fluorescence polarization was performed as described by Joachim et al..[9] The assay was performed in TBS/Ca2+ buffer (20 mM Tris, 137 mM NaCl, 2.6 mM KCl at pH 7.4 supplemented with 1 mM CaCl2) in presence of 25% DMSO. Averages and standard deviations were calculated from at least three independent experiments. […]
RR OR In h i b i to r [µ M ]
R R In h i b i to r [µ M ] […]
R In h i b i to r [µ M ] 30 L2
30 F2 40 K2 In h i b i to r [µ M ] […]
In h i b i to r [µ M ] In h i b i to r [µ M ]
Figure S1: Evaluation of amide divalent LecA ligands in a competitive binding assay based on fluorescence […]
representative experiment is shown or each series. Averages and standard deviations from at least three independent titrations of triplicates each.
[…] Fluorescence polarization [mP] -1 0 1 2 3 0 1001010 Me-α-Gal pNO2-Ph-β-Gal 1000 Inhibitor [µM] Fluorescence polarization [mP])

[3] = biological target: T1, LecA; test: Direct binding to immobilized LecA by surface plasmon resonance (SPR); conditions: for kon: SPR single-cycle kinetics, 25 °C, N=3 (I1 N=1); for Relative potency r.p. (SPR): compared to respective monovalent compound in each series
Experimental: K d values were oscillating with the number of methylene units present in the linker, presumably linked to the zig‐zag geometry of the hydrocarbon chain.
Expression and purification of LecA as well as competitive binding by fluorescence polarization was performed as described by Joachim et al..[9] […]
Surface plasmon resonance experiments were performed on a BIACORE X100 instrument (GE Healthcare) at 25 °C as described by Zahorska et. al..[8] Averages and standard deviations were calculated from three independent experiments. […]
Figure S3: SPR of divalent LecA ligands from benzene series. Sensorgrams obtained from SPR single-cycle kinetics experiments. Five different concentrations of each compound (0, 10, 50, 100, 200 nM) were sequentially injected to obtain the experimental sensorgrams (blue lines), which were then fitted by a 1:1 model (orange) on BIACORE evaluation software. […]
Figure S4: SPR of divalent LecA ligands from pyridine and sulfonated series. Sensorgrams obtained from SPR single-cycle kinetics experiments. Five different concentrations of each compound (0, 10, 50, 100, 200 nM) were sequentially injected to obtain the experimental sensorgrams (blue lines), which were then fitted by a 1:1 model (orange) on BIACORE evaluation software.
(also on this page, place not known: Response (RU)0 Response (RU)0 Response (RU) Response (RU) Response (RU) Response (RU) 030060090012001500) […]

Row | Structure (SMILES) | microsomal CLint at 1 µM [1] [µL/min/mg] | IC50 [2] [µM] | Kd [3] [µM] | koff [3] [s⁻¹] | kon [3] | Relative potency r.p. (SPR) [3]
1 | O=C(CCc1ccc(O[C@@H]2O[C@H](CO)[C@H](O)[C@H](O)[C@H]2O)cc1)Nc1ccc(OCCOc2ccc(NC(=O)CCc3ccc(O[C@@H]4O[C@H](CO)[C@H](O)[C@H](O)[C@H]4O)cc3)cn2)nc1 [Compound H2] | 32.5 | 4.8 ± 2.2 | 0.0099 ± 0.0001 | 0.00141 ± 5e-05 | 142 ± 3.5 x10^3/Ms | 300
2 | O=C(/C=C/c1ccc(O[C@@H]2O[C@H](CO)[C@H](O)[C@H](O)[C@H]2O)cc1)Nc1ccc(OCCOc2ccc(NC(=O)/C=C/c3ccc(O[C@@H]4O[C@H](CO)[C@H](O)[C@H](O)[C@H]4O)cc3)cc2)cc1 [Compound D1] | 21.9 | 5.6 ± 3.1 | 0.0407 ± 0.003 | 0.00249 ± 0.00028 | 61.1 ± 2.5 x10^3/Ms | 128
3 | O=C(CCc1ccc(O[C@@H]2O[C@H](CO)[C@H](O)[C@H](O)[C@H]2O)cc1)Nc1ccc(OCCOc2ccc(NC(=O)CCc3ccc(O[C@@H]4O[C@H](CO)[C@H](O)[C@H](O)[C@H]4O)cc3)cc2)cc1 [Compound D2] | 21 | 4.5 ± 1.8 | 0.0231 ± 0.0003 | 0.00284 ± 6e-05 | 123 ± 4.1 x10^3/Ms | 233
4 | Cc1ccc(NC(=O)CCc2ccc(O[C@@H]3O[C@H](CO)[C@H](O)[C@H](O)[C@H]3O)cc2)cc1S(=O)(=O)O [Compound K2] |  | 14.4 ± 3.6 | 3.79 ± 0.1 |  |  | 1
5 | O=C(CCc1ccc(O[C@@H]2O[C@H](CO)[C@H](O)[C@H](O)[C@H]2O)cc1)Nc1ccc(CCc2ccc(NC(=O)CCc3ccc(O[C@@H]4O[C@H](CO)[C@H](O)[C@H](O)[C@H]4O)cc3)cc2S(=O)(=O)O)c(S(=O)(=O)O)c1 [Compound L2] | 9.2 | 4.6 ± 2.2 | 0.0328 ± 0.0015 | 0.00707 ± 0.0011 | 215 ± 29 x10^3/Ms | 115
6 | O=C(/C=C/c1ccc(O[C@@H]2O[C@H](CO)[C@H](O)[C@H](O)[C@H]2O)cc1)Nc1ccc(OCCOc2ccc(NC(=O)/C=C/c3ccc(O[C@@H]4O[C@H](CO)[C@H](O)[C@H](O)[C@H]4O)cc3)cn2)nc1 [Compound H1] | 28.6 | 8 ± 4.3 | 0.0137 ± 0.0016 | 0.00165 ± 0.00012 | 121 ± 6.8 x10^3/Ms | 217
7 | COc1ccc(NC(=O)CCc2ccc(O[C@@H]3O[C@H](CO)[C@H](O)[C@H](O)[C@H]3O)cc2)cn1 [Compound G2] |  | 14.3 ± 7.2 | 2.97 ± 0.08 |  |  | 1
